These results are taken from patent publication EP2818471A1, “Nitrogen bicyclic compounds as inhibitors for Scyl1 and Grk5” (Max-Planck-Gesellschaft zur Förderung der Wissenschaften …, priority 2013, dated 2014).

Structures are written as SMILES.

The experiment deals with beta-TC6 cells. The experiment can be described thus: Insulin HTRF assay, relative activity Ar normalized to sunitinib. The experiment is classed as cell-based. Particulars: Mus musculus, normalized to positive control sunitinib (5 µM = 100%), Table 10. In short, it runs like this:
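beta-TC6 cells (15k/well) were seeded for 24 or 48 h, washed and exposed to test compound or sunitinib (5 µM f.c.) in induction buffer with 0.5% DMSO for 2, 3 or 4 h at 37°C. Secreted insulin in the supernatant was measured by two-antibody HTRF after 120 min at RT. Ar = (V − 0% control)/(100% control − 0% control) × 100.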
With `c1csc(-c2cnc3cnc(-c4ccsc4)cn23)c1` [compound 415, 3-(2-thienyl)-6-(3-thienyl)imidazo[1,2-a]pyrazine], the Emax lay within 50 to 100%. Take `COc1ccc(-c2cnc3cnc(-c4cccs4)cn23)cc1` [compound 362, 3-(4-methoxyphenyl)-6-(2-thienyl)imidazo[1,2-a]pyrazine]: the Emax was 20 to 50%. Turning to `Nc1ccc(-c2cn3c(-c4cccs4)cnc3cn2)cn1` [compound 427, 5-[3-(2-thienyl)imidazo[1,2-a]pyrazin-6-yl]pyridin-2-amine], the maximal response (Emax) lay in the range of 20 to 50%.

`COc1ccc(-c2ccc3nnc(-c4ccccc4)n3c2)c(C)c1` [compound 166, 6-(4-methoxy-2-methyl-phenyl)-3-phenyl-[1,2,4]triazolo[4,3-a]pyridine] displayed an Emax of at least 100%. `Clc1ccc(-c2cnc3cnc(-c4cccs4)cn23)cc1` [compound 349, 3-(4-chlorophenyl)-6-(2-thienyl)imidazo[1,2-a]pyrazine] returned an Emax of 20 to 50%. The figure for `CN(C)c1cccc(-c2ccc3nnc(-c4cscn4)n3c2)c1` [compound 227, N,N-dimethyl-3-(3-thiazol-4-yl-[1,2,4]triazolo[4,3-a]pyridin-6-yl)aniline] is 50 to 100%.

In turn, `COc1ccc(-c2cn3c(-c4cccc(O)c4)cnc3cn2)cn1` [compound 369, 3-[6-(6-methoxy-3-pyridyl)imidazo[1,2-a]pyrazin-3-yl]phenol] showed an Emax of 20 to 50%. Consider `OCc1ccc(-c2cn3c(-c4cccc(F)c4)cnc3cn2)cc1` [compound 389, [4-[3-(3-fluorophenyl)imidazo[1,2-a]pyrazin-6-yl]phenyl]methanol], for which the Emax was 20 to 50%. As for `Nc1cccc(-c2cnc3ccc(NC4CCOCC4)nn23)c1` [compound 33, 3-(3-aminophenyl)-N-tetrahydropyran-4-yl-imidazo[1,2-b]pyridazin-6-amine], the figure is 20 to 50%. As for `CS(=O)(=O)Nc1cccc(-c2cn3c(-c4cccnc4)cnc3cn2)c1` [compound 318, N-[3-[3-(3-pyridyl)imidazo[1,2-a]pyrazin-6-yl]phenyl]methanesulfonamide], the figure is 20 to 50%; as for `CC(C)Oc1cccc(-c2cn3c(-c4cccs4)cnc3cn2)c1` [compound 428, 6-(3-isopropoxyphenyl)-3-(2-thienyl)imidazo[1,2-a]pyrazine], 20 to 50%; as for `O=S1(=O)CCN(CC#Cc2ccc3nnc(-c4cscn4)n3c2)CC1` [compound 232, 4-[3-(3-thiazol-4-yl-[1,2,4]triazolo[4,3-a]pyridin-6-yl)prop-2-ynyl]-1,4-thiazinane 1,1-dioxide], 10 to 20%.

Molecule `COc1cc(-c2cnc3cnc(-c4ccc5c(c4)OCO5)cn23)ccc1O` [compound 394, 4-[6-(1,3-benzodioxol-5-yl)imidazo[1,2-a]pyrazin-3-yl]-2-methoxy-phenol] displayed an Emax of 20 to 50%. The molecule `c1ccc(Oc2ccccc2-c2cn3c(-c4ccncc4)cnc3cn2)cc1` [compound 311, 6-(2-phenoxyphenyl)-3-(4-pyridyl)imidazo[1,2-a]pyrazine] gave an Emax of 20 to 50%. `CN(C)C(=O)c1ccc(-c2cnc3cnc(-c4ccc5c(ccn5C)c4)cn23)cc1` [compound 433, N,N-dimethyl-4-[6-(1-methylindol-5-yl)imidazo[1,2-a]pyrazin-3-yl]benzamide] yielded an Emax of 20 to 50%. The molecule `N#Cc1cccc(-c2nnc3ccc(-c4ccccn4)cn23)c1` [compound 222, 3-[6-(2-pyridyl)-[1,2,4]triazolo[4,3-a]pyridin-3-yl]benzonitrile] displayed a maximal response (Emax) of 20 to 50%.

Molecule `CN(C)c1cccc(-c2cnc3cnc(-c4cccs4)cn23)c1` [compound 345, N,N-dimethyl-3-[6-(2-thienyl)imidazo[1,2-a]pyrazin-3-yl]aniline] displayed a maximal effect (Emax) of 20 to 50%. As to `CN1CCN(c2ccc(-c3cn4c(-c5cccc(O)c5)cnc4cn3)cc2)CC1` [compound 367, 3-[6-[4-(4-methylpiperazin-1-yl)phenyl]imidazo[1,2-a]pyrazin-3-yl]phenol], the Emax lay in the range of 20 to 50%. As for `Oc1cccc(-c2cnc3ccc(-c4cccc5ncccc45)nn23)c1` [compound 128, 3-[6-(5-quinolyl)imidazo[1,2-b]pyridazin-3-yl]phenol], the figure is 10 to 20%; as for `Fc1ccc(-c2ccc3ncc(-c4cccs4)n3n2)cc1Cl` [compound 156, 6-(3-chloro-4-fluoro-phenyl)-3-(2-thienyl)imidazo[1,2-b]pyridazine], 20 to 50%; as for `c1cncc(CCNc2ccc3ncc(-c4ccc(N5CCOCC5)cc4)n3n2)c1` [compound 24, 3-(4-morpholinophenyl)-N-[2-(3-pyridyl)ethyl]imidazo[1,2-b]pyridazin-6-amine], 50 to 100%. On to `CN(C)c1cccc(-c2cn3c(NC(=O)c4ccccc4)cnc3cn2)c1` [compound 268, N-[6-[3-(dimethylamino)phenyl]imidazo[1,2-a]pyrazin-3-yl]benzamide], for which the Emax is 50 to 100%.

As to `CN(C)CCCOc1ccc(-c2nnc3ccc(C#Cc4ccc(C(=O)N(C)C)cc4)cn23)cc1` [compound 238, 4-[2-[3-[4-[3-(dimethylamino)propoxy]phenyl]-[1,2,4]triazolo[4,3-a]pyridin-6-yl]ethynyl]-N,N-dimethyl-benzamide], the Emax was in the range of 20 to 50%.

On to `COc1ccccc1-c1ccc2ncc(-c3ccc(F)c(Cl)c3)n2n1` [compound 113, 3-(3-chloro-4-fluoro-phenyl)-6-(2-methoxyphenyl)imidazo[1,2-b]pyridazine], for which the Emax fell in the range of 20 to 50%.

For `Cn1cc(-c2cnc3cnc(-c4ccncc4)cn23)cn1` [compound 438, 3-(1-methylpyrazol-4-yl)-6-(4-pyridyl)imidazo[1,2-a]pyrazine], the Emax was in the range of 20 to 50%. The figure for `COc1cncc(-c2ccc3nnc(-c4cccc(OC(F)(F)F)c4)n3c2)c1` [compound 192, 6-(5-methoxy-3-pyridyl)-3-[3-(trifluoromethoxy)phenyl]-[1,2,4]triazolo[4,3-a]pyridine] is 50 to 100%; for `c1ccc(-c2cnc3cnc(-c4cccs4)cn23)cc1` [compound 298, 3-phenyl-6-(2-thienyl)imidazo[1,2-a]pyrazine] it is 20 to 50%. In the case of `COc1cc(-c2cnc3cnc(-c4cnn(C)c4)cn23)ccc1O` [compound 397, 2-methoxy-4-[6-(1-methylpyrazol-4-yl)imidazo[1,2-a]pyrazin-3-yl]phenol], the Emax fell in the range of 50 to 100%. The molecule `CC(=O)Nc1cccc(-c2cnc3ccc(-c4cccnc4)nn23)c1` [compound 109, N-[3-[6-(3-pyridyl)imidazo[1,2-b]pyridazin-3-yl]phenyl]acetamide] came in with an Emax of 10 to 20%. Consider `CN(C)c1ccc(-c2cnc3cnc(-c4cccc(NS(C)(=O)=O)c4)cn23)cc1` [compound 295, N-[3-[3-(4-dimethylaminophenyl)imidazo[1,2-a]pyrazin-6-yl]phenyl]methanesulfonamide], for which the Emax was 20 to 50%. For the molecule `Nc1ccc(-c2cn3c(-c4ccc5c(c4)OCO5)cnc3cn2)cn1` [compound 309, 5-[3-(1,3-benzodioxol-5-yl)imidazo[1,2-a]pyrazin-6-yl]pyridin-2-amine], the Emax fell in the range of 10 to 20%. In turn, `FC(F)(F)Oc1cccc(-c2cnc3cnc(-c4cccnc4)cn23)c1` [compound 352, 6-(3-pyridyl)-3-[3-(trifluoromethoxy)phenyl]imidazo[1,2-a]pyrazine] yielded a maximum response (Emax) of 20 to 50%.
